Measurements reported in patent US5593970A, “Heterocyclic anthracycline analogs” (priority 1994, dated 1997).
“And” between values parts separate entries of the source, which are not always exact repeats. Equal values may be shown once. Read-outs that look alike come from different tables or passages of the source.

Experiments:
[1] = tested on: HCT-116; test: NCI sulforhodamine B assay; assay type: cell-based; conditions: Homo sapiens
Method: (§1) These assays were carried out at the Developmental Therapeutics Program, Division of Cancer Treatment, National Cancer Institute (Bethesda, Md., U.S.A.). The method consists of incubating varying concentrations of the drug with an inoculum of cells for two days. […] The 57 cell lines included two mouse leukemia lines (P388 parental and adriamycin resistant) and […] human cell lines.
(§2) It should be noted that the first two parameters (GI50 and TGI) relate to antiproliferation effects while the third one (LC50) indicates true cytotoxicity. A value of -4 or greater is considered to denote resistance (inactivity).

[2] = tested on: K-562; test: NCI sulforhodamine B assay; assay type: cell-based; conditions: Homo sapiens, K562, 48 h, read-out: Log10 TGI (converted)
Method: as §1, §2

[3] = tested on: MOLT-4; test: NCI sulforhodamine B assay; assay type: cell-based; conditions: Homo sapiens, MOLT-4, 48 h; read-out: Log10 TGI (converted)
Method: as §1, §2

[4] = tested on: OVCAR-3; test: NCI sulforhodamine B assay; assay type: cell-based; conditions: Homo sapiens, read-out: Log10 GI50 (converted)
Method: as §1, §2

[5] = tested on: OVCAR-8; test: NCI sulforhodamine B assay; assay type: cell-based; conditions: Homo sapiens, read-out: Log10 GI50 (converted)
Method: as §1, §2

[6] = tested on: P388; test: NCI sulforhodamine B assay; assay type: cell-based; conditions: Mus musculus, P388, 48 h
Method: as §1, §2

[7] = tested on: SNB-78; test: NCI sulforhodamine B assay; assay type: cell-based; conditions: Homo sapiens, SNB-78, 48 h, read-out: Log10 LC50 (converted)
Method: as §1, §2

[8] = tested on: XF-498 L; test: NCI sulforhodamine B assay; assay type: cell-based; conditions: Homo sapiens
Method: as §1, §2

[9] = tested on: HOP-92; test: NCI sulforhodamine B assay; assay type: cell-based, human
Method: as §1, §2

[10] = tested on: IGROV-1; test: NCI sulforhodamine B assay; assay type: cell-based, human
Method: as §1, §2

[11] = tested on: MALMB-3M; test: NCI sulforhodamine B assay; assay type: cell-based, human
Method: as §1, §2

[12] = tested on: MCF-7/ADR; test: NCI sulforhodamine B assay; assay type: cell-based, human
Method: as §1, §2

[13] = tested on: NCl-H226; test: NCI sulforhodamine B assay; assay type: cell-based, human
Method: as §1, §2

[14] = tested on: OVCAR-5; test: NCI sulforhodamine B assay; assay type: cell-based, human
Method: as §1, §2

[15] = tested on: RPMI-8226; test: NCI sulforhodamine B assay; assay type: cell-based, human; conditions: 2880 min
Method: as §1, §2

[16] = tested on: RXF-393L; test: NCI sulforhodamine B assay; assay type: cell-based, human
Method: as §1, §2

[17] = tested on: SF-539; test: NCI sulforhodamine B assay; assay type: cell-based, human
Method: as §1, §2

[18] = tested on: SK-MEL-28; test: NCI sulforhodamine B assay; assay type: cell-based, human
Method: as §1, §2

[19] = tested on: SK-MEL-2; test: NCI sulforhodamine B assay; assay type: cell-based, human
Method: as §1, §2

[20] = tested on: SK-MEL-5; test: NCI sulforhodamine B assay; assay type: cell-based, human
Method: as §1, §2

[21] = tested on: SNB-19; test: NCI sulforhodamine B assay; assay type: cell-based, human; conditions: for GI50: read-out: Log10 GI50 (converted)
Method: as §1, §2

[22] = tested on: UACC-257; test: NCI sulforhodamine B assay; assay type: cell-based, human
Method: as §1, §2

[23] = tested on: P388/ADR; test: NCI sulforhodamine B assay; assay type: cell-based, mouse
Method: as §1, §2

[24] = tested on: Colon; conditions: colon cancer cell lines, 48 h
[25] = tested on: Renal; conditions: renal cancer cell lines, 48 h

COC(=O)C1CC2=C(C(=O)c3c(cc4ccccc4c3O)C2=O)C(O[C@H]2C[C@H](NC(=O)C(F)(F)F)[C@H](O)[C@H](C)O2)O1 (mixture of isomers) [BCH-242, (1'S,1R,3S) and (1'S, 1S,3R)-Methyl[11-hydroxy-1-2',3',6'-trideoxy-3-trifluroacetamido-L-lyxohexopyranose)-5,12-dioxo-3,4,5,12-tetrahydroanthraceno[2,3-c]pyran-3-yl]formate]
CC50 ([1]; HCT-116, 48 h, read-out: Log10 LC50 (converted)): 0.933 µM
IC100 ([1]; HCT-116, 48 h, read-out: Log10 TGI (converted)): 0.355 µM
GI50 ([1]; HCT-116, read-out: Log10 GI50 (converted)): 0.132 µM
IC100 [2]: 4.47 µM
IC100 [3]: 3.24 µM
GI50 ([4]; OVCAR-3, OVCAR-3): 1.51 µM
GI50 ([4]; OVCAR-3): 0.251 µM
GI50 ([5]; OVCAR-8, OVCAR-8): 0.224 µM
GI50 ([5]; OVCAR-8): 3.24 µM
CC50 ([6]; read-out: Log10 LC50 (converted)): > 100 µM
IC100 ([6]; read-out: Log10 TGI): > 100 µM
CC50 [7]: > 100 µM
CC50 ([8]; XF498, 48 h, read-out: Log10 LC50 (converted)): 6.03 µM
IC100 ([8]; XF498, 48 h, XF-498 L, read-out: Log10 TGI (converted)): 3.16 µM
GI50 ([8]; XF498, XF-498 L, read-out: Log10 GI50 (converted)): 1.62 µM
Log10 LC50 ([9]; HOP-92, 2880 min): -5.36 log molar
CC50 ([9]; Homo sapiens, HOP-92, 48 h, read-out: Log10 LC50, HOP-92 (converted)): 6.76 µM
Log10 GI50 [10]: -5.75 log molar
Log10 LC50 ([10]; 2880 min): -5.10 log molar
IC100 ([11]; Homo sapiens, 48 h, MALMB-3M, read-out: Log10 TGI (converted)): 3.24 µM
CC50 ([11]; Homo sapiens, 48 h, read-out: Log10 LC50, MALMB-3M (converted)): 5.75 µM
GI50 ([11]; Homo sapiens, MALMB-3M, read-out: Log10 GI50 (converted)): 1.78 µM
Log10 GI50 ([11]; MALMB-3M): -6.02 log molar
Log10 TGI ([11]; MALMB-3M): -5.67 log molar
Log10 LC50 ([11]; MALMB-3M, 2880 min): -5.33 log molar
CC50 ([12]; Homo sapiens, NCI/ADR-RES, 48 h, read-out: Log10 LC50, MCF-7/ADR (converted)): 7.08 µM
Log10 LC50 ([12]; MCF-7/ADR, 2880 min): -5.15 log molar and -5.40 log molar
Log10 GI50 [13]: -5.71 log molar
Log10 TGI [13]: -5.44 log molar
IC100 ([13]; Homo sapiens, 48 h, read-out: Log10 TGI (converted)): 6.61 µM
GI50 ([13]; Homo sapiens, read-out: Log10 GI50 (converted)): 2.75 µM
IC100 ([14]; Homo sapiens, OVCAR-5, 48 h, OVCAR-5, read-out: Log10 TGI (converted)): 3.47 µM
CC50 ([14]; Homo sapiens, OVCAR-5, 48 h, read-out: Log10 LC50, OVCAR-5 (converted)): 5.89 µM
GI50 ([14]; Homo sapiens, OVCAR-5, OVCAR-5, read-out: Log10 GI50 (converted)): 2 µM
Log10 GI50 ([14]; OVCAR-5): -5.73 log molar
Log10 TGI ([14]; OVCAR-5): -5.49 log molar
Log10 LC50 ([14]; OVCAR-5, 2880 min): -5.24 log molar
Log10 LC50 [15]: -4.47 log molar
IC100 ([16]; Homo sapiens, 48 h, RXF-393L, read-out: Log10 TGI (converted)): 2.63 µM
CC50 ([16]; Homo sapiens, 48 h, read-out: Log10 LC50, RXF-393L (converted)): 5.37 µM
GI50 ([16]; Homo sapiens, RXF-393L, read-out: Log10 GI50 (converted)): 1.29 µM
Log10 GI50 ([16]; RXF-393L): -6.05 log molar
Log10 TGI ([16]; RXF-393L): -5.67 log molar
Log10 LC50 ([16]; RXF-393L, 2880 min): -5.32 log molar
IC100 ([17]; Homo sapiens, SF-539, 48 h, SF-539, read-out: Log10 TGI (converted)): 4.37 µM
CC50 ([17]; Homo sapiens, SF-539, 48 h, read-out: Log10 LC50, SF-539 (converted)): 9.33 µM
GI50 ([17]; Homo sapiens, SF-539, SF-539, read-out: Log10 GI50 (converted)): 2.04 µM
Log10 GI50 ([17]; SF-539): -5.90 log molar
Log10 TGI ([17]; SF-539): -5.60 log molar
Log10 LC50 ([17]; SF-539, 2880 min): -5.30 log molar
CC50 ([18]; Homo sapiens, SK-MEL-28, 48 h, read-out: Log10 LC50, SK-MEL-28 (converted)): 7.76 µM
Log10 LC50 ([18]; SK-MEL-28, 2880 min): -5.37 log molar
CC50 ([19]; Homo sapiens, SK-MEL-2, 48 h, read-out: Log10 LC50, SK-MEL-2 (converted)): 5.75 µM
Log10 LC50 ([19]; SK-MEL-2, 2880 min): -5.39 log molar
IC100 ([20]; Homo sapiens, SK-MEL-5, 48 h, SK-MEL-5, read-out: Log10 TGI (converted)): 2.82 µM
CC50 ([20]; Homo sapiens, SK-MEL-5, 48 h, read-out: Log10 LC50, SK-MEL-5 (converted)): 5.5 µM
Log10 TGI ([20]; SK-MEL-5): -5.73 log molar
Log10 LC50 ([20]; SK-MEL-5, 2880 min): -5.36 log molar
CC50 ([21]; Homo sapiens, SNB-19, 48 h, read-out: Log10 LC50, SNB-19 (converted)): 36.3 µM
GI50 ([21]; Homo sapiens, SNB-19, SNB-19): 3.8 µM
GI50 ([21]; Homo sapiens, SNB-19): 2.29 µM
Log10 LC50 ([21]; SNB-19, 2880 min): -4.65 log molar
CC50 ([22]; Homo sapiens, UACC-257, 48 h, read-out: Log10 LC50, UACC-257 (converted)): 6.61 µM
Log10 LC50 ([22]; UACC-257, 2880 min): -5.47 log molar
Log10 LC50 ([23]; 2880 min): > -4.00 log molar
CC50 ([23]; Mus musculus, 48 h, read-out: Log10 LC50, P388/ADR (converted)): 69.2 µM
GI50 ([23]; Mus musculus, read-out: Log10 GI50 (converted)): 2.34 µM and 0.324 µM

Methyl(11-hydroxy-5,12-dioxo-3,4,5,12-tetrahydroanthraceno[2,3-c]pyran-3-yl)ketone and Methyl(5-hydroxy-5,12-dioxo-3,4,5,12-tetrahydroanthraceno[2,3-c]pyran-3-yl)ketone [BCH-687]
Average LOG10 LC50 [24]: -4.25(± 0.09) log molar
Average LOG10 LC50 [25]: > -4.21 log molar
